Laboratory results published in ChEMBL document CHEMBL1201862, “PubChem BioAssay data set” (2004).
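Each compound was tested at five concentrations against cells in 96-well plates for 48 hours. Here, GI50 denotes the concentration required for 50% inhibition of growth.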 Calls of active or inactive are those of the source. Rule as the data show it: active = GI50 up to about 1.1 µM and inactive = higher. Positions of bridges follow the written chain, without caps; N, C: chain ends. Residues, ends and D or L forms follow the SMILES beside them.

How the values were obtained:
Test in all cases: DTP human tumour cell line panel, 48 h
[1] = test system: MDA-MB-231
[2] = test system: CAKI-1
[3] = test system: NCI-H460
[4] = test system: MOLT-4
[5] = test system: PC-3
[6] = test system: LOX IMVI
[7] = test system: IGROV-1
[8] = test system: OVCAR-3
[9] = test system: UO-31
[10] = test system: SNB-19
[11] = test system: SR
[12] = test system: RPMI-8226
[13] = test system: K562
[14] = test system: MCF7
[15] = test system: SK-MEL-28
[16] = test system: CCRF-CEM
[17] = test system: SF-295
[18] = test system: TK-10
[19] = test system: M14
[20] = test system: A498

SMILES | GI50 [1] | GI50 [2] | GI50 [3] | GI50 [4] | GI50 [5] | GI50 [6] | GI50 [7] | GI50 [8] | GI50 [9] | GI50 [10] | GI50 [11] | GI50 [12] | GI50 [13] | GI50 [14] | GI50 [15] | GI50 [16] | GI50 [17] | GI50 [18] | GI50 [19] | GI50 [20]
COC(=O)C1CCC(=O)NCCCCC(NC(=O)C(N)CC(=O)O)C(=O)N1 (stereo not drawn) (H-Asp-Lys-Glu-OMe; lactam 2-3; configuration not given here) | > 100 µM (inactive) | 82 µM (inactive) | 9.68 µM (inactive) | > 100 µM (inactive) | > 100 µM (inactive) | > 100 µM (inactive) | > 100 µM (inactive) | > 100 µM (inactive) | > 100 µM (inactive) | > 100 µM (inactive) | > 100 µM (inactive) | > 100 µM (inactive) | > 100 µM (inactive) | 62.7 µM (inactive) | > 100 µM (inactive) | 32.4 µM (inactive) | > 100 µM (inactive) | > 100 µM (inactive) | > 100 µM (inactive) | 
Cc1ccc(/N=N/c2c(O)c(C(=O)O)cc3ccccc23)cc1C | > 100 µM (inactive) | > 100 µM (inactive) | > 100 µM (inactive) | > 100 µM (inactive) | > 100 µM (inactive) |  | > 100 µM (inactive) | > 100 µM (inactive) | > 100 µM (inactive) | 46.1 µM (inactive) | > 100 µM (inactive) | > 100 µM (inactive) | 82.6 µM (inactive) | > 100 µM (inactive) | > 100 µM (inactive) | > 100 µM (inactive) | > 100 µM (inactive) | > 100 µM (inactive) | > 100 µM (inactive) | 
C/C1=C\[C@H](C)C[C@H](C)OC(=O)[C@H](C)NC(=O)[C@@H](Cc2ccc(O)c(Br)c2)N(C)C(=O)[C@H](C)NC(=O)[C@@H](C)C1 | 0.0211 µM (active) | 0.0149 µM (active) | 0.00701 µM (active) | 0.3 µM (active) | 0.0335 µM (active) | 0.00533 µM (active) | 0.0152 µM (active) | 0.0179 µM (active) | 0.0538 µM (active) | 0.184 µM (active) |  | 0.0295 µM (active) | 0.0836 µM (active) | 0.0479 µM (active) | 0.00659 µM (active) | 0.0124 µM (active) | 0.0578 µM (active) | 0.0724 µM (active) | 0.118 µM (active) | 0.0149 µM (active)
CN1C(=O)N(C)C2(CCN(CCCCCCF)CC2)C1=O | > 100 µM (inactive) | > 100 µM (inactive) |  | > 10 µM (inactive) | > 100 µM (inactive) | > 100 µM (inactive) | > 100 µM (inactive) | > 100 µM (inactive) | > 100 µM (inactive) | > 100 µM (inactive) | > 100 µM (inactive) | > 100 µM (inactive) | > 100 µM (inactive) | > 100 µM (inactive) | > 100 µM (inactive) | > 100 µM (inactive) | > 100 µM (inactive) | > 100 µM (inactive) | > 100 µM (inactive) | 
COc1ccc(-c2cc(-c3ccco3)c(C#N)c(=S)n2C2OC(CO)C(O)C(O)C2O)cc1 (stereo not drawn) | 36.2 µM (inactive) | > 100 µM (inactive) | > 100 µM (inactive) | > 100 µM (inactive) | > 100 µM (inactive) | 50.4 µM (inactive) | 92.3 µM (inactive) | 49.7 µM (inactive) | > 100 µM (inactive) | > 100 µM (inactive) |  | > 100 µM (inactive) | > 100 µM (inactive) | 58.6 µM (inactive) | > 100 µM (inactive) | > 100 µM (inactive) | 80.4 µM (inactive) | > 100 µM (inactive) | 52 µM (inactive) | > 100 µM (inactive)
